From EP3636781A1, “NOVEL SCREENING ASSAYS FOR IDENTIFYING COMPOUNDS RESERSING HIV-1 LATENCY” (Heinrich-Pette-Institut Leibniz-Institut für Experimentelle …, priority 2018, dated 2020)

Tests used:
[1] = system: J89; assay: SM111 treatment of latent J89 cells, latency reversal as HIV-1-GFP+ cells; assay type: cell-based; settings: 100 µM, several consecutive passages, HIV-1-GFP+ cells by flow cytometry (Figure 7A)
Experimental: All results were depicted as medians ± IQR. […].
For SM111 treatment, the HIV-1 latent Jurkat cell line, J89, was treated with SM111 compound, a Vpu-inhibitor, SM113, a negative compound, and DMSO for several consecutive passages. 1x10^6 cells were plated and treated with 100 µM of all compounds for 4 days. Then, one fourth (25%) of the cells were passaged into new media containing the respective treatment and the rest were used to measure HIV-1 latency reactivation (GFP) and cell viability. An untreated control well was kept as internal negative control.

[2] = system: J89Δvpu cells; settings: 96 hrs, proportion of Zombie NIR-/activated Caspase 3- cells against concentration
Experimental: (§1) Latency reactivation was traced by quantifying the proportion of HIV-1-GFP+ cells. […] The treatment of J89Δvpu cells with increasing concentrations of sulfasalazine was measured at 96 hrs. Cells shown are gated on viable cells (Zombie NIR- gate) and on negative activated caspase 3 to exclude any apoptotic or dead cell. […] (B) NF-κB inhibitor, sulfasalazine, was added at several concentrations to the J89Cas9AVpu cell line and the proportion of GFP- cells (latent) was measured by flow cytometry at 96 hrs. (gating strategy: (A): FSC/SSC → Zombie NIR- → HIV-1-GFP. (B) FSC/SSC → Zombie NIR negative → Caspase 3 active negative → HIV-1-GFP).

[3] = system: J89Δvpu cells; assay: cells; settings: 96 h, read-out: EC50 for HIV-1 latency re-establishment
Experimental: as §1

[4] = target: NF-κB (human) (UniProt Q04206); assay: cell-based or functional assay
Sequence of NF-κB (human) (Q04206 whole entry): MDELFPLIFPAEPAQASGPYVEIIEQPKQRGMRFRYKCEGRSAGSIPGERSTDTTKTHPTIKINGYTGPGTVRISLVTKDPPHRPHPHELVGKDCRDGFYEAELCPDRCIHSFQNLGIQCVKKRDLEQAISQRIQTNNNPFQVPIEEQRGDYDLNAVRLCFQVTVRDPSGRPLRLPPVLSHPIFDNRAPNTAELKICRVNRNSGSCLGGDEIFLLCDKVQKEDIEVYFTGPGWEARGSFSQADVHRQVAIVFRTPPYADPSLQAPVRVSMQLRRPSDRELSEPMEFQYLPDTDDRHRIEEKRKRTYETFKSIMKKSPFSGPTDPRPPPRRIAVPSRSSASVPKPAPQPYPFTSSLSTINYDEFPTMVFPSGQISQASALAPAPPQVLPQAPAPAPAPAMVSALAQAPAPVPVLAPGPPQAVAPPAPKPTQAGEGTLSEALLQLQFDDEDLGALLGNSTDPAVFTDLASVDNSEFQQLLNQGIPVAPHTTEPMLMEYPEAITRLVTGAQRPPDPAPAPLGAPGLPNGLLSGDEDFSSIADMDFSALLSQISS

With `N=C(N)NC(=O)c1cccnc1N1CCCCCC1` [SM111, 1-(2-(azepan-1-yl)nicotinoyl)guanidine] the “reversal of HIV-1 latency” value [1] was “able to reverse HIV-1 latency”.

For `O=C(O)c1cc(/N=N/c2ccc(S(=O)(=O)Nc3ccccn3)cc2)ccc1O` [sulfasalazine], the LD50 [2] was over 0.50 mM and the EC50 [3] was 400 µM.

HIV-1 89.6 Vpu R45K mutant gave an activation of NF-κB in a dual luciferase reporter assay (HEK293T, constitutively active IKKβ, increasing amounts of Vpu expression plasmid), EC50 [4] of over 38 ng.

In the case of “HIV-1 Vpu protein (strain 89.6), wild type”, the activation of NF-κB in a dual luciferase reporter assay (HEK293T, constitutively active IKKβ, increasing amounts of Vpu expression plasmid), EC50 [4] is reported as 5.2 ng.
